Test results: paper PMC9329436, “Optimization of the 4-anilinoquin(az)oline scaffold as epidermal growth factor receptor (EGFR) inhibitors for chordoma utilizing a toxicology profiling assay platform” (Scientific Reports, 2022)
Like-named read-outs stand apart in the source and are kept apart here.

What was measured:
Type in all cases: biochemical
[1] = biological target: T1, 320 wild-type protein kinases (Homo sapiens, UniProt Q9NZJ5); details: singlicate
T1 sequence (Q9NZJ5 30-1116): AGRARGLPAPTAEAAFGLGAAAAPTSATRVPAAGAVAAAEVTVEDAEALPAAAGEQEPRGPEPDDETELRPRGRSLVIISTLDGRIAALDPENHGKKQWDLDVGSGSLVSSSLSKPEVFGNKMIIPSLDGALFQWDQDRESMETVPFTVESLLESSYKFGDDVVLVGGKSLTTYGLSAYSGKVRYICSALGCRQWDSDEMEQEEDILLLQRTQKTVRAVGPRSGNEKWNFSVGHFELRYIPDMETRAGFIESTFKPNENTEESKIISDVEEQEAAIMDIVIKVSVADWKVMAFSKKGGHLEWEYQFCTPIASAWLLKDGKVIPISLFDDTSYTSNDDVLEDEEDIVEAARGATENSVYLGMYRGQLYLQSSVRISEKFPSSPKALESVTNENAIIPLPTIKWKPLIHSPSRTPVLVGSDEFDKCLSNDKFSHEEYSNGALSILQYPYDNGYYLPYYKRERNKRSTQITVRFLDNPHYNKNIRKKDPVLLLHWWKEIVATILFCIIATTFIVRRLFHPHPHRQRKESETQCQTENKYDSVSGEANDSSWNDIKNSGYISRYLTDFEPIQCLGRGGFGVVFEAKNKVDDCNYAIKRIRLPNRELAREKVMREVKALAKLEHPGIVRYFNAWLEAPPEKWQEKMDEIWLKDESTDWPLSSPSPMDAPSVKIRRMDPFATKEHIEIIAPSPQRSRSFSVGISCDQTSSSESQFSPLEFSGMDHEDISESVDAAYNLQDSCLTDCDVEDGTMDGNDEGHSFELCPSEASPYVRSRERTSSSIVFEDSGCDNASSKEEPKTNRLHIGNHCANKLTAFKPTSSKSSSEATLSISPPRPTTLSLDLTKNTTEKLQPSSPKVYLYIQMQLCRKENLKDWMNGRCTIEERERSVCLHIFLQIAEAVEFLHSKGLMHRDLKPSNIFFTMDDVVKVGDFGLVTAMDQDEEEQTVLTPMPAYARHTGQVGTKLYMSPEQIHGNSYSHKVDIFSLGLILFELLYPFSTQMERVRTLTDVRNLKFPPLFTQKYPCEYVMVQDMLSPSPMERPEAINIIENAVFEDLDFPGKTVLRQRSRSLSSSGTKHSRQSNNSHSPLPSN
Excerpt: (§1) Table S4. Profiling of two compounds at two concentrations against 320 wild-type protein kinases; singlicate measurement; Residual activities (% of control).

[2] = biological target: 320 wild-type protein kinases (Homo sapiens, UniProt Q02779); details: singlicate
Chain of 320 wild-type protein kinases (Homo sapiens, UniProt Q02779) (Q02779 whole entry): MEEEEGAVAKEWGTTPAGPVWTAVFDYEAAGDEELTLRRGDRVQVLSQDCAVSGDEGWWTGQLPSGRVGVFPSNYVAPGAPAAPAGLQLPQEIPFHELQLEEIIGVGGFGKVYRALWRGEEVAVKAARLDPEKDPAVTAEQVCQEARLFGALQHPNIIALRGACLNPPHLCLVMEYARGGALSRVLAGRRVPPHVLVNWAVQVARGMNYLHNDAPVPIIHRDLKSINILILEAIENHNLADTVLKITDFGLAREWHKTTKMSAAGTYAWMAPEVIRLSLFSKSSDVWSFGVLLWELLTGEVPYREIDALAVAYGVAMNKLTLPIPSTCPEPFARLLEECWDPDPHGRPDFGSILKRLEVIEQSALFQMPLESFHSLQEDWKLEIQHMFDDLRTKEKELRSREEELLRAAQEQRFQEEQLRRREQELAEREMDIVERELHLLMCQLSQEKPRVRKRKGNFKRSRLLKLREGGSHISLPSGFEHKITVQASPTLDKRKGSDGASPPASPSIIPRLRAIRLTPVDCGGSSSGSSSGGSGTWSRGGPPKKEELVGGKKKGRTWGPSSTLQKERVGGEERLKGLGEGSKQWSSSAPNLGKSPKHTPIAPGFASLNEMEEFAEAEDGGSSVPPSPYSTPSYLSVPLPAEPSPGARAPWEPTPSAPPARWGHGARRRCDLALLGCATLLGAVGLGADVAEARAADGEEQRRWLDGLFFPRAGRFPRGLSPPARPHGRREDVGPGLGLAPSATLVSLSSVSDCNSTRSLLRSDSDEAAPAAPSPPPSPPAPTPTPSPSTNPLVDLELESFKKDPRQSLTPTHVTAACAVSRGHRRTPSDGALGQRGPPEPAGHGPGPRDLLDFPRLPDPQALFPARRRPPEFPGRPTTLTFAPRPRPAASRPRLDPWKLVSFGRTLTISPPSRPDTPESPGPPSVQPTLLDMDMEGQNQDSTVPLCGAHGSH
Excerpt: as §1

[3] = biological target: 320 wild-type protein kinases (Homo sapiens, UniProt Q8N568); details: singlicate
Chain of 320 wild-type protein kinases (Homo sapiens, UniProt Q8N568) (Q8N568 whole entry): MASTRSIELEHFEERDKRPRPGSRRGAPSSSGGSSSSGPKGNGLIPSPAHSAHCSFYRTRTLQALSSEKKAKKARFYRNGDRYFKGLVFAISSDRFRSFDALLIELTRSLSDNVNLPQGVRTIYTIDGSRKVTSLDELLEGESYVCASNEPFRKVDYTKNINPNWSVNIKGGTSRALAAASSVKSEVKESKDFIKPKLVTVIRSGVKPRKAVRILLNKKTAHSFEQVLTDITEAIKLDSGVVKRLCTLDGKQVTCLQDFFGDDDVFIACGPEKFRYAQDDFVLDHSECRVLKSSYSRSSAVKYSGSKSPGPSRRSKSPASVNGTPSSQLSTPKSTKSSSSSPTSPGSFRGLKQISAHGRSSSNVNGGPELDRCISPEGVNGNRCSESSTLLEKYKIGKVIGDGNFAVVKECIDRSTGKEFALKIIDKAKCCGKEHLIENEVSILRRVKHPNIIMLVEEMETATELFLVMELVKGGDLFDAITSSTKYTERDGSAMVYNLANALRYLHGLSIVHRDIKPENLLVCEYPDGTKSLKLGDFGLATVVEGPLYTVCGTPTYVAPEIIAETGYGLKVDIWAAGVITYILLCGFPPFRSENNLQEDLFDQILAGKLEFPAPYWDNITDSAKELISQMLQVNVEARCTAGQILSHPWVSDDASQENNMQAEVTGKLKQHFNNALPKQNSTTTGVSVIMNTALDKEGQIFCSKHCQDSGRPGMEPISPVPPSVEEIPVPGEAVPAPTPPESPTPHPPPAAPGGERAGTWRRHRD
Excerpt: as §1

[4] = biological target: 320 wild-type protein kinases (Homo sapiens, UniProt P49336); details: CDK8/CycC, singlicate
Chain of 320 wild-type protein kinases (Homo sapiens, UniProt P49336) (P49336 whole entry): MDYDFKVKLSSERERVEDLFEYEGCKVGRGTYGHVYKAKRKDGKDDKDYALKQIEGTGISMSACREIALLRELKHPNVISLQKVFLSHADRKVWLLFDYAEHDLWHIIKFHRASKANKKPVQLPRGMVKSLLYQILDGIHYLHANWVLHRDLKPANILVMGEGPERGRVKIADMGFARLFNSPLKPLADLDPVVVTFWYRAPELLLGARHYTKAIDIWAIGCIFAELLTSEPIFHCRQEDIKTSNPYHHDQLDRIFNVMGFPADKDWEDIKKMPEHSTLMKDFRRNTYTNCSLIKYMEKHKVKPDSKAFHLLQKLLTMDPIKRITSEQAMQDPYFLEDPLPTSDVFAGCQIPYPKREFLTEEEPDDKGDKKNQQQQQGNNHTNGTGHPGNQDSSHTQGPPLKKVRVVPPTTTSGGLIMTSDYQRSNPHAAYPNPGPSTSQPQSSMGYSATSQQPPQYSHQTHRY
Excerpt: as §1

[5] = biological target: 320 wild-type protein kinases (Homo sapiens, UniProt O75676); details: kinase RPS6KA4, singlicate
Chain of 320 wild-type protein kinases (Homo sapiens, UniProt O75676) (O75676 whole entry): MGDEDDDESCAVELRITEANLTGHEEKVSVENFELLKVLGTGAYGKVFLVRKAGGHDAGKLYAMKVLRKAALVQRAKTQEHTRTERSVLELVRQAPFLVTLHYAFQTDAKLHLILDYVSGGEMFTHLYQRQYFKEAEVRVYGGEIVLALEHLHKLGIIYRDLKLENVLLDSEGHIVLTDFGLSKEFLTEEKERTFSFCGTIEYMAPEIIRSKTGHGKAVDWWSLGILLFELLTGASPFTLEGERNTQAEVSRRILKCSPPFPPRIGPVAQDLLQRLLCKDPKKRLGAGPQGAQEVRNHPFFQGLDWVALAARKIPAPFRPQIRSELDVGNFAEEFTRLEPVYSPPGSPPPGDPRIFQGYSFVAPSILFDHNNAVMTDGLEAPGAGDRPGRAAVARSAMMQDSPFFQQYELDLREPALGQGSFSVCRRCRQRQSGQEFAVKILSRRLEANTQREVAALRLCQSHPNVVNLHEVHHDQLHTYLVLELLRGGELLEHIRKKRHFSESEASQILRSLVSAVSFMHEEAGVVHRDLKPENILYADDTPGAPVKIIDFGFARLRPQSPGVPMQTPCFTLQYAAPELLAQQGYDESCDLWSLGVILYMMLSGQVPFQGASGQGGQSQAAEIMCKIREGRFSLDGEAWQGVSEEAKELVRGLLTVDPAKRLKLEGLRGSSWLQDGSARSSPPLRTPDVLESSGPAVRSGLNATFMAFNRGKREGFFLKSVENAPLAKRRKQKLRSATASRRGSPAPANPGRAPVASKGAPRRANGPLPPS
Excerpt: as §1

[6] = biological target: T2, 320 wild-type protein kinases (Homo sapiens, UniProt Q08881); details: ITK, singlicate
T2 sequence (Q08881 1-620): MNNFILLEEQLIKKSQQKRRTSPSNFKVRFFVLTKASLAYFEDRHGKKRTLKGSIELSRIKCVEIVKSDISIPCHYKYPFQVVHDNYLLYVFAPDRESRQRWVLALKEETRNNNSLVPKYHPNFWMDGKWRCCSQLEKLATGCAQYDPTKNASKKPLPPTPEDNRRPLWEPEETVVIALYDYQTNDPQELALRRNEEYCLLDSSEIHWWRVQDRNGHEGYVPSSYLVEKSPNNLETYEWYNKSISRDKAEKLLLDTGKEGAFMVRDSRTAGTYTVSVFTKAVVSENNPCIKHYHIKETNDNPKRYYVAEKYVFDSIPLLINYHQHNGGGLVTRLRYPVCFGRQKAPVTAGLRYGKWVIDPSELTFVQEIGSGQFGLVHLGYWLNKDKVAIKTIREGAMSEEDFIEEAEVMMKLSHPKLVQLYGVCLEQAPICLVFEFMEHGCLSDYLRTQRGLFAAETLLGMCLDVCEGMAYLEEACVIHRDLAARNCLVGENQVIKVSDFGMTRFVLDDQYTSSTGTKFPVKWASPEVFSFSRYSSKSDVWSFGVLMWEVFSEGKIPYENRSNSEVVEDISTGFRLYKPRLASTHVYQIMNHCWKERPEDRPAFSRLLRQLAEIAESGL
Excerpt: as §1

[7] = biological target: T3, 320 wild-type protein kinases (Homo sapiens, UniProt P51955); details: singlicate
T3 sequence (P51955 1-445): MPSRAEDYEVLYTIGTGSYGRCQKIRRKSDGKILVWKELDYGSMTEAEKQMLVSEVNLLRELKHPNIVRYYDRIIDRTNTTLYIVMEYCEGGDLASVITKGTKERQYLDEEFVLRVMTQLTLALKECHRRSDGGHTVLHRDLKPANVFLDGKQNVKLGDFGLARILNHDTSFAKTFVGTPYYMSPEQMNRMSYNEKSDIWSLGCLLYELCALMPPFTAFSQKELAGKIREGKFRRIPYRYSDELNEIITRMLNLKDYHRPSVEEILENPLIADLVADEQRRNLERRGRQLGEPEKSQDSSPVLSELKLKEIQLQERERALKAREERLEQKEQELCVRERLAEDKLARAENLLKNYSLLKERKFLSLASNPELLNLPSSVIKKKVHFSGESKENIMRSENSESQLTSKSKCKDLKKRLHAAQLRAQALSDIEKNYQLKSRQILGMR
Excerpt: as §1

[8] = biological target: 320 wild-type protein kinases (Homo sapiens, UniProt P43405); details: kinase SYK aa1-635, singlicate
Excerpt: as §1

With `C#Cc1cc(Nc2ncnc3cc(I)ccc23)ccc1Cl` [Compound 41] as the molecule, how does the Residual activity ([1]; EIF2AK3, 1.0E-06 M) read?
Its Residual activity is 95 % of control.

And the Residual activity ([1]; EIF2AK3, 1.0E-07 M)?
Its Residual activity is 86 % of control.

And the Residual activity ([2]; MAP3K10, 1.0E-06 M)?
The Residual activity was 93 % of control.

What about the Residual activity ([2]; MAP3K10, 1.0E-07 M) of the same molecule?
Its Residual activity is 102 % of control.

What about the Residual activity ([3]; DCAMKL2, 1.0E-06 M) of the same molecule?
The Residual activity was 90 % of control.

What about the Residual activity ([3]; DCAMKL2, 1.0E-07 M) of the same molecule?
The Residual activity was 87 % of control.

What about the Residual activity ([4]; 1.0E-06 M) of the same molecule?
The Residual activity was 92 % of control.

And the Residual activity ([4]; 1.0E-07 M)?
The Residual activity was 91 % of control.

What about the “Residual activity, RPS6KA4” value ([5]; assay conc. 1.0E-06 M) of the same molecule?
Its value is 93 % of control.

And the “Residual activity, RPS6KA4” value ([5]; assay conc. 1.0E-07 M)?
The value was 95 % of control.

And the Residual activity ([6]; 1.0E-06 M)?
The Residual activity was 107 % of control.

And the Residual activity ([6]; 1.0E-07 M)?
Its Residual activity is 99 % of control.

What about the Residual activity ([7]; NEK2, 1.0E-06 M) of the same molecule?
Its Residual activity is 82 % of control.

And the Residual activity ([7]; NEK2, 1.0E-07 M)?
The Residual activity was 96 % of control.

What about the “Residual activity, SYK aa1-635” value ([8]; assay conc. 1.0E-06 M) of the same molecule?
The value was 94 % of control.

And the “Residual activity, SYK aa1-635” value ([8]; assay conc. 1.0E-07 M)?
Its value is 94 % of control.

`C#Cc1cc(Nc2ncnc3cc(OC)c(OC)cc23)ccc1Cl` [Compound 45] was tested. Which Residual activity ([1]; EIF2AK3, 1.0E-06 M) did it give?
Its Residual activity is 82 % of control.

What about the Residual activity ([1]; EIF2AK3, 1.0E-07 M) of the same molecule?
The Residual activity was 90 % of control.

And the Residual activity ([2]; MAP3K10, 1.0E-06 M)?
The Residual activity was 86 % of control.

What about the Residual activity ([2]; MAP3K10, 1.0E-07 M) of the same molecule?
The Residual activity was 92 % of control.

What about the Residual activity ([3]; DCAMKL2, 1.0E-06 M) of the same molecule?
Its Residual activity is 103 % of control.

What about the Residual activity ([3]; DCAMKL2, 1.0E-07 M) of the same molecule?
Its Residual activity is 97 % of control.

What about the Residual activity ([4]; 1.0E-06 M) of the same molecule?
The Residual activity was 95 % of control.

What about the Residual activity ([4]; 1.0E-07 M) of the same molecule?
Its Residual activity is 97 % of control.

And the “Residual activity, RPS6KA4” value ([5]; assay conc. 1.0E-06 M)?
The value was 83 % of control.

And the “Residual activity, RPS6KA4” value ([5]; assay conc. 1.0E-07 M)?
The value was 95 % of control.

What about the Residual activity ([6]; 1.0E-06 M) of the same molecule?
Its Residual activity is 99 % of control.

And the Residual activity ([6]; 1.0E-07 M)?
Its Residual activity is 88 % of control.

What about the Residual activity ([7]; NEK2, 1.0E-06 M) of the same molecule?
Its Residual activity is 86 % of control.

And the Residual activity ([7]; NEK2, 1.0E-07 M)?
Its Residual activity is 92 % of control.

And the “Residual activity, SYK aa1-635” value ([8]; assay conc. 1.0E-06 M)?
The value was 104 % of control.

And the “Residual activity, SYK aa1-635” value ([8]; assay conc. 1.0E-07 M)?
Its value is 105 % of control.
